{"source": "patent US20230114264A1", "about": "“ACTIVATION OF LYTIC GENES IN CANCER CELLS” (priority 2020, published 2023)", "key": {"EBV lytic genes": {"system": "EBV lytic genes", "assay": "EBV lytic gene induction in DOX-induced C17 dCas9-Tet-on-PUFa-p65HSF1 sgRNA cells", "type": "cell-based, Epstein-Barr virus (EBV)", "description": "SNU-719, C666-1 and C17 (nasopharyngeal carcinoma) cancer cells stably expressing HA-dCas9-EGFP and BZLF1 sgRNA3 were modified to inducibly express 3×FLAG-PUFa-p65HSF1 using a Tetracycline response element (Tet-On).\ndCas9-Tet on-p65HSF1-BZLF1sgRNA3 cell lines were produced as described previously. EBV reactivation, FACS, electrophoretic gel images, RT-PCR experiments, RNAscope in situ hybridization, growth proliferation assay and functional virion proliferation assay were conducted as described previously\nProducing HA-dCas9-EGFP-Tet-on PUFa-p65HSF1-BZLF1 sgRNA3-BRLF1sgRNA3 cell line. The day prior to transfection, HEK-293FT cells were seeded into a 10 cm culture dish at 70% density. […]. At 6 hours post-transfection, medium was exchanged for fresh. At 48 hour post-transfection, 5 mL of medium containing the lentivirus was collected and centrifuged for 10 minutes at 2,000 rpm to remove cellular debris. The supernatant was filtered through a 0.45-micron filter (Millipore), and the lentivirus was collected. […]"}, "C17 cells": {"system": "C17 cells", "assay": "Growth proliferation, viability, apoptosis, cell cycle and clonogenic assays in C17 cells", "type": "cell-based", "description": "Growth proliferation assay. SNU-719 HA-dCas9-Tet-on-PUFa-p65HSF1-BZLF1 gRNA (3) or C666-1 HA-dCas9-Tet-on-PUFa-p65HSF1-BZLF1 gRNA (A5) cells were seeded into individual wells of a 96-well plate for at 1×10^5 cells per well the day before being treated with 1 μg/mL DOX and Ganciclovir (GCV). Cells were counted with the cell counting kit-8 (CCK-8, Sigma) at day 6, day 7, and day 8 (FIGS. 8H-8I).\nActive caspase-3 analysis. To detect the apoptosis in DOX treated dCas9-Tet on-p65HSF1-BZLF1sgRNA3 SNU719 and C17 cells, active caspase-3 apoptosis kit (BD Pharmingen #550914) was used. Untreated and treated cells were trypsinized and then fixed with fixation buffer in ice for 20 mins and washed with washing buffer twice. Cells were then stained with the PE conjugated rabbit anti active caspase-3 antibody in dark for 30 mins. Stained cells were collected with BD LSRFortessa.\nCell cycle analysis. After 96 hours from induction of DOX, dCas9-Tet on-p65HSF1-BZLF1sgRNA3 SNU719 and C17 cells were trypsinized and then fixed with 75% cold ethanol for 2 hrs at −20° C. Cells were washed three times with cold PBS and then resuspended in PBS containing 100 μg/mL RNase A and 10 μg/mL propidium iodide for 10 min at room temperature. Stained cells were collected with BD LSRFortessa.\nClonogenic assays. Cells were seeded at a density of 500 cells/well in 6-well plates the day before treatment. Then cells were stained with 0.5% crystal violet 14 days after treatment, and at least 50 cells were considered as a single colony"}}, "data": [{"substance": "BZLF1 gRNA (A5): BZLF1 gRNA spacer sequence SEQ ID NO: 10, GAAACTATGCATGAGCCAC (chemistry not given here)", "values": [{"measurement": "expression of other EBV lytic genes including BRLF1 (Rta), BGLF4 (PK), BFRF3 (VCAp18), BMRF1, BdRF1 and BLLF1", "setting": "EBV lytic genes; 1 μg/mL DOX", "value": "induces the expression of other EBV lytic genes"}, {"measurement": "BZLF1 (Zta) reactivation", "setting": "EBV lytic genes; 1 μg/mL Doxycycline (DOX), Example 10", "value": "reactivated BZLF1 (Zta)"}, {"measurement": "cell cycle by flow cytometry", "setting": "C17 cells; DOX induced, FIG. 17B", "value": "sub G1 phase accumulation and S phase decrease"}, {"measurement": "cell proliferation, apoptosis and growth of cells in vitro", "setting": "C17 cells; DOX-induced EBV reactivation", "value": "suppressed the cell proliferation, induced apoptosis, and slowed the growth of cells"}, {"measurement": "monolayer colony formation", "setting": "C17 cells; after DOX induction, FIG. 17E", "value": "dramatic suppression"}]}]}
